Measured values published in the supplement of paper PMC11451515.

System: NOMO1
Assay: cell viability relative to DMSO control; higher = less cytotoxic
Conditions: 48 h
Summary of the method: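 Viability is a per-plate percentage relative to DMSO wells, with cell-free wells as background. CellTiter-Glo One luminescence was read after 48 h at 37°C on 1536-well plates (5 μl) of NOMO1 or SEM (500 cells/well) or P12-Ichikawa (1000 cells/well) leukemia cells. The cells had been adapted for at least four passages in each medium and pin-dosed with library compounds in DMSO from 47 μM to 0.79 nM in 11 threefold steps.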

[1] = HPLM + 10% dialyzed FBS, 0.000781 µM
[2] = HPLM + 10% dialyzed FBS, 0.00234 µM
[3] = HPLM + 10% dialyzed FBS, 0.00702 µM
[4] = HPLM + 10% dialyzed FBS, 0.0211 µM
[5] = HPLM + 10% dialyzed FBS, 0.0632 µM
[6] = HPLM + 10% dialyzed FBS, 0.19 µM
[7] = HPLM + 10% dialyzed FBS, 0.569 µM
[8] = HPLM + 10% dialyzed FBS, 1.71 µM
[9] = HPLM + 10% dialyzed FBS, 5.12 µM
[10] = HPLM + 10% dialyzed FBS, 15.4 µM
[11] = HPLM + 10% dialyzed FBS, 46.1 µM
[12] = RPMI 5 mM glucose + 10% FBS, 0.000781 µM
[13] = RPMI 5 mM glucose + 10% FBS, 0.00234 µM
[14] = RPMI 5 mM glucose + 10% FBS, 0.00702 µM
[15] = RPMI 5 mM glucose + 10% FBS, 0.0211 µM
[16] = RPMI 5 mM glucose + 10% FBS, 0.0632 µM
[17] = RPMI 5 mM glucose + 10% FBS, 0.19 µM
[18] = RPMI 5 mM glucose + 10% FBS, 0.569 µM
[19] = RPMI 5 mM glucose + 10% FBS, 1.71 µM
[20] = RPMI 5 mM glucose + 10% FBS, 5.12 µM
[21] = RPMI 5 mM glucose + 10% FBS, 15.4 µM
[22] = RPMI 5 mM glucose + 10% FBS, 46.1 µM
[23] = RPMI 5 mM glucose + 10% dialyzed FBS, 0.000781 µM
[24] = RPMI 5 mM glucose + 10% dialyzed FBS, 0.00234 µM
[25] = RPMI 5 mM glucose + 10% dialyzed FBS, 0.00702 µM
[26] = RPMI 5 mM glucose + 10% dialyzed FBS, 0.0211 µM
[27] = RPMI 5 mM glucose + 10% dialyzed FBS, 0.0632 µM
[28] = RPMI 5 mM glucose + 10% dialyzed FBS, 0.19 µM
[29] = RPMI 5 mM glucose + 10% dialyzed FBS, 0.569 µM
[30] = RPMI 5 mM glucose + 10% dialyzed FBS, 1.71 µM
[31] = RPMI 5 mM glucose + 10% dialyzed FBS, 5.12 µM
[32] = RPMI 5 mM glucose + 10% dialyzed FBS, 15.4 µM
[33] = RPMI 5 mM glucose + 10% dialyzed FBS, 46.1 µM

SMILES | cell viability [1] | cell viability [2] | cell viability [3] | cell viability [4] | cell viability [5] | cell viability [6] | cell viability [7] | cell viability [8] | cell viability [9] | cell viability [10] | cell viability [11] | cell viability [12] | cell viability [13] | cell viability [14] | cell viability [15] | cell viability [16] | cell viability [17] | cell viability [18] | cell viability [19] | cell viability [20] | cell viability [21] | cell viability [22] | cell viability [23] | cell viability [24] | cell viability [25] | cell viability [26] | cell viability [27] | cell viability [28] | cell viability [29] | cell viability [30] | cell viability [31] | cell viability [32] | cell viability [33]
CC1(C)CNc2cc(NC(=O)c3cccnc3NCc3ccncc3)ccc21 | 131% | 118% | 112% | 137% | 108% | 105% | 112% | 113% | 109% | 94.6% | 91.8% | 115% | 119% | 134% | 124% | 120% | 118% | 124% | 120% | 103% | 120% | 118% | 116% | 110% | 120% | 112% | 107% | 96.3% | 114% | 115% | 113% | 105% | 115%
COc1ccc([C@@H]2CC(=O)c3c(O)cc(O[C@@H]4O[C@H](CO[C@@H]5O[C@@H](C)[C@H](O)[C@@H](O)[C@H]5O)[C@@H](O)[C@H](O)[C@H]4O)cc3O2)cc1O | 106% | 104% | 121% | 111% | 115% | 97.7% | 112% | 123% | 117% | 109% | 117% | 102% | 100% | 121% | 117% | 105% | 105% | 110% | 102% | 108% | 124% | 120% | 94.3% | 101% | 115% | 122% | 124% | 107% | 123% | 116% | 114% | 114% | 104%
CN1\C(=C(\O)C2=C(C=CC=C2)[S+]1([O-])=O)C(=O)NC3=CC=CC=N3 | 107% | 138% | 110% | 122% | 122% | 129% | 105% | 107% | 102% | 58.2% | 29.1% | 109% | 101% | 108% | 116% | 117% | 123% | 113% | 109% | 123% | 43.9% | 21.2% | 87.5% | 103% | 100% | 100% | 113% | 99.2% | 116% | 94.6% | 99.6% | 108% | 35.3%
CN(C)CCN(C)C(=O)c1ccc(NC(=O)Nc2ccc(-c3nc(N4CCOCC4)c4ccn(CC(F)(F)F)c4n3)cc2)cc1 | – | – | – | – | – | – | – | – | – | – | – | 101% | 115% | 117% | 130% | 109% | 91.2% | 74.5% | 70% | 75.7% | 78.7% | 81.9% | 116% | 113% | 113% | 121% | 92.6% | 78.5% | 81.7% | 67.4% | 72.5% | 68.1% | 69.5%
CC(C)C[C@H](NC(=O)CNC(=O)c1cc(Cl)ccc1Cl)B(O)O | 88.3% | 104% | 106% | 33.1% | 125% | 92% | 20.4% | 9.39% | 4.5% | 4.57% | 4.02% | 81.1% | 88.8% | 100% | 16.8% | 104% | 86.2% | 19.7% | 7.24% | 5.18% | 4.14% | 2.67% | 98.5% | 94.2% | 108% | 33.5% | 96.9% | 107% | 28.3% | 8.85% | 5.16% | 4.61% | 2.91%
Cn1c(=O)n(-c2ccc(C(C)(C)C#N)cc2)c2c3cc(-c4cnc5ccccc5c4)ccc3ncc21 | 99.4% | 99.2% | 105% | 97.5% | 91.2% | 89.2% | 61.1% | 37.4% | 41.9% | 33.9% | 32.2% | 103% | 114% | 104% | 102% | 106% | 99.9% | 89.8% | 52.4% | 28.7% | 19.8% | 27.1% | 102% | 120% | 111% | 112% | 94.9% | 73.4% | 66.4% | 49.3% | 33.7% | 22.6% | 30.5%
C/C(O)=C(\C#N)C(=O)Nc1cc(Br)ccc1Br | 111% | 119% | 98.3% | 115% | 88.3% | 104% | 98.3% | 96.6% | 98.8% | 90.7% | 78.3% | 96.4% | 93.7% | 94.6% | 99.2% | 94% | 92.5% | 96.2% | 90% | 83% | 88% | 82.3% | 95.3% | 96% | 102% | 102% | 94.1% | 102% | 90% | 83.4% | 82.5% | 93.3% | 78%
